Data on 27 compounds can be found in article PMC8286840, “Identifying SARS-CoV-2 antiviral compounds by screening for small molecule inhibitors of Nsp3 papain-like protease” (Biochemical Journal, 2021).

Counter-ions that a name gives are not always drawn. Like-named read-outs stand apart in the source and are kept apart here. Where a SMILES comes first, the peptide text is derived from it. [ ]: non-standard residue; d: D form. The star is where a group is joined. Dolaproine = CO[C@@H]([C@@H]1CCCN1)[C@@H](C)C(=O)O; Dil = CC[C@H](C)[C@H](NC)[C@@H](CC(=O)O)OC; NMe2Val = CC(C)[C@@H](C(=O)*)N(C)C

Assay [1] addresses T1, SARS-CoV-2 PLpro (nsp3 1564–1878) (Severe acute respiratory syndrome coronavirus 2, UniProt P0DTD1). The assay is described as follows: biochemical. The arrangement: FRET-quenched peptide (Pro3) cleavage by PLpro, 10 min pre-incubation, slope over 20 min, normalised to no-compound control. Conditions: low concentration screen, read-out: % of control remaining.
The target of assay [2] is T1, SARS-CoV-2 PLpro (nsp3 1564–1878). Put plainly: biochemical. The arrangement: FRET-quenched peptide (Pro3) cleavage by PLpro, 10 min pre-incubation, slope over 20 min, normalised to no-compound control. To be noted: high concentration screen, read-out: % of control remaining.

For `C[N+]1(C)[C@@H]2CC[C@H]1C[C@@H](OC(=O)C(CO)c1ccccc1)C2` (stereo partly shown) [Atropine methyl nitrate], the remaining activity at 1.25 µM in assay [1] (Well no.=245) turned out to be 99.7%. Besides, in assay [2] (Well no.=245), the remaining activity at 3.75 µM is 100%.

On to `CN1[C@@H]2CC[C@H]1C[C@@H](OC(=O)C(CO)c1ccccc1)C2` (stereo partly shown) [Atropine sulfate], for which the results for the remaining activity at 1.25 µM in assay [1] (Well no.=197) and in assay [1] (Well no.=3238) were 99.5% and 102%, respectively. Further, the remaining activity at 3.75 µM in assay [2] (Well no.=3238) is 102%.

As for `OCC1=C[C@@H](O)[C@@H]2C=CO[C@@H](O[C@@H]3O[C@H](CO)[C@@H](O)[C@H](O)[C@H]3O)[C@H]12` [Aucubin], the remaining activity at 1.25 µM in assay [1] (Well no.=3162) came out at 99.3%. In addition, the remaining activity at 3.75 µM in assay [2] (Well no.=3162) amounted to 97.6%.

For `CC(C)=CCC/C(C)=C/COc1ccc2ccc(=O)oc2c1` [Auraptene], the remaining activity at 1.25 µM in assay [1] (Well no.=3511) turned out to be 101%. Also, the remaining activity at 3.75 µM in assay [2] (Well no.=3511) is 104%.

Regarding `O=C(O)C1=CC(=C(c2ccc(O)c(C(=O)O)c2)c2ccc(O)c(C(=O)O)c2)C=CC1=O` [Aurintricarboxylic acid], the remaining activity at 1.25 µM in assay [1] (Well no.=249) amounted to 97.6%. Further, the remaining activity at 3.75 µM in assay [2] (Well no.=249) amounted to 109%.

In the case of `CC[C@H](C)[C@@H]([C@@H](CC(=O)N1CCC[C@H]1[C@H](OC)[C@@H](C)C(=O)N[C@@H](Cc1ccccc1)C(=O)O)OC)N(C)C(=O)[C@@H](NC(=O)[C@H](C(C)C)N(C)C)C(C)C` [Auristatin F] (NMe2Val-V[Dil][Dolaproine]F-OH), the remaining activity at 1.25 µM in assay [1] (Well no.=8602) stood at 106%. For the same compound, in assay [2] (Well no.=8602), the remaining activity at 3.75 µM was found to be 100%.

Regarding `CCN1CCN(C(=O)Cc2ccc(Nc3ncc(F)c(Nc4ccc(C(=O)Nc5ccccc5Cl)cc4)n3)cc2)CC1` [Aurora A Inhibitor I], the remaining activity at 1.25 µM in assay [1] (Well no.=5241) turned out to be 95.1%. The remaining activity at 3.75 µM in assay [2] (Well no.=5241) was 102%.

On to `O=C(Nc1cccc(Nc2nccc(Nc3cccc(C(F)(F)F)c3)n2)c1)C1CC1` [Aurora Kinase Inhibitor III], for which the figures for the remaining activity at 1.25 µM in assay [1] (Well no.=2326) and in assay [1] (Well no.=2659) were 105% and 95.7%, respectively. Also, the remaining activity at 3.75 µM is 102% in assay [2] (Well no.=2326) and 94% in assay [2] (Well no.=2659).

In the case of `COc1cc2ncnc(Nc3ccc(NC(=O)c4ccccc4)cc3)c2cc1OC` [Aurora Kinase Inhibitor II], the remaining activity at 1.25 µM in assay [1] (Well no.=2321) was found to be 99.4%. Besides, in assay [2] (Well no.=2321), the remaining activity at 3.75 µM was found to be 99.9%.

As for `Nc1nc(Nc2ccc(S(N)(=O)=O)cc2)nn1C(=O)c1c(F)cccc1F` [Aurora Kinase/Cdk Inhibitor], in assay [1] (Well no.=2356), the remaining activity at 1.25 µM is 98.5%. In addition, in assay [2] (Well no.=2356), the remaining activity at 3.75 µM turned out to be 100%.

Take `CC1=CC(=O)C2=C(C)C[C@H](O)[C@@H]3[C@H](OC(=O)[C@H]3C)[C@@H]12` [Austricin]: the remaining activity at 1.25 µM in assay [1] (Well no.=3105) was 102%. Moreover, the remaining activity at 3.75 µM in assay [2] (Well no.=3105) is 105%.

Consider `Cc1nc2cccc(N)c2c(=O)n1C1CCC(=O)NC1=O` (stereo not shown) [Avadomide], for which the remaining activity at 1.25 µM in assay [1] (Well no.=6870) amounted to 99.6%. Moreover, in assay [2] (Well no.=6870), the remaining activity at 3.75 µM is 95.9%.

With `COc1ccc(CNc2nc(N3CCC[C@H]3CO)ncc2C(=O)NCc2ncccn2)cc1Cl` [Avanafil], in assay [1] (Well no.=5078), the remaining activity at 1.25 µM came out at 101%. Moreover, the remaining activity at 3.75 µM in assay [2] (Well no.=5078) amounted to 100%.

In the case of `CC(C)c1cc(C(C)C)c(CC(=O)NS(=O)(=O)Oc2c(C(C)C)cccc2C(C)C)c(C(C)C)c1` [Avasimibe], the values for the remaining activity at 1.25 µM in assay [1] (Well no.=5705) and in assay [1] (Well no.=8336) were 99.6% and 89.6%, respectively. For the same compound, the remaining activity at 3.75 µM stood at 96.6% in assay [2] (Well no.=5705) and 88% in assay [2] (Well no.=8336).

On to `COc1ccccc1Oc1c(NS(=O)(=O)c2ccc(C)cn2)nc(-c2ccncc2)nc1OC` [Avosentan], for which the remaining activity at 1.25 µM in assay [1] (Well no.=7281) came to 102%. Moreover, the remaining activity at 3.75 µM in assay [2] (Well no.=7281) came out at 100%.

For the compound `CNC(=O)c1ccccc1Sc1ccc2c(/C=C/c3ccccn3)n[nH]c2c1` [Axitinib], the remaining activity at 1.25 µM in assay [1] (Well no.=2803) came to 101%. Also, in assay [2] (Well no.=2803), the remaining activity at 3.75 µM was found to be 99.1%.

Regarding `OC(c1ccccc1)(c1ccccc1)C1CCNCC1` [Azacyclonol], the remaining activity at 1.25 µM in assay [1] (Well no.=5068) came out at 97.2%. Besides, in assay [2] (Well no.=5068), the remaining activity at 3.75 µM was 103%.

In the case of `O=C(CCCN1CCN(c2ccccn2)CC1)c1ccc(F)cc1` [Azaperone], the results for the remaining activity at 1.25 µM in assay [1] (Well no.=2163) and in assay [1] (Well no.=6471) were 100% and 102%, respectively. The remaining activity at 3.75 µM in assay [2] (Well no.=2163) is 103%; in assay [2] (Well no.=6471), 101%.

Regarding `CN1C(=O)COc2c(C(=O)NC3CN4CCC3CC4)cc(Cl)cc21` (stereo not shown) [Azasetron (hydrochloride)], the remaining activity at 1.25 µM in assay [1] (Well no.=8243) was 96.2%. In addition, the remaining activity at 3.75 µM in assay [2] (Well no.=8243) is 96.1%.

As for `CN1CCC(=C2c3ccccc3CCc3cccnc32)CC1` [Azatadine (dimaleate)], the remaining activity at 1.25 µM in assay [1] (Well no.=7617) is 103%. Also, the remaining activity at 3.75 µM in assay [2] (Well no.=7617) amounted to 105%.

Consider `CN1CCC(=C2c3ccccc3CCc3cccnc32)CC1` [Azatadine dimaleate], for which the remaining activity at 1.25 µM in assay [1] (Well no.=5036) is 99%. Besides, the remaining activity at 3.75 µM in assay [2] (Well no.=5036) turned out to be 102%.

Take `Cn1cnc([N+](=O)[O-])c1Sc1ncnc2[nH]cnc12` [Azathioprine]: the remaining activity at 1.25 µM in assay [1] (Well no.=111) amounted to 99.7%; in assay [1] (Well no.=1834), 102%. Also, the remaining activity at 3.75 µM in assay [2] (Well no.=111) is 100%; in assay [2] (Well no.=1834), 97.6%.

In the case of `O=C(O)CCCCCCCC(=O)O` [Azelaic acid], the values for the remaining activity at 1.25 µM in assay [1] (Well no.=243) and in assay [1] (Well no.=6157) were 100% and 108%, respectively. For the same compound, the values for the remaining activity at 3.75 µM in assay [2] (Well no.=243) and in assay [2] (Well no.=6157) were 98.7% and 105%, respectively.

In the case of `CN1CCCC(n2nc(Cc3ccc(Cl)cc3)c3ccccc3c2=O)CC1` (stereo not shown) [Azelastine (hydrochloride)], in assay [1] (Well no.=6173), the remaining activity at 1.25 µM was determined as 103%. Besides, the remaining activity at 3.75 µM in assay [2] (Well no.=6173) was determined as 105%.

Consider `CC1=C(C(=O)OC(C)C)C(c2cccc([N+](=O)[O-])c2)C(C(=O)OC2CN(C(c3ccccc3)c3ccccc3)C2)=C(N)N1` (stereo not shown) [Azelnidipine], for which the remaining activity at 1.25 µM in assay [1] (Well no.=5275) is 97.2%. Moreover, the remaining activity at 3.75 µM in assay [2] (Well no.=5275) was 93.3%.

In the case of `CCOc1nc2cccc(C(=O)O)c2n1Cc1ccc(-c2ccccc2-c2noc(=O)[nH]2)cc1` [Azilsartan], the remaining activity at 1.25 µM turned out to be 97.2% in assay [1] (Well no.=5416) and 90.2% in assay [1] (Well no.=6813). The remaining activity at 3.75 µM in assay [2] (Well no.=5416) stood at 95.7%; in assay [2] (Well no.=6813), 89.9%.

For `CC[C@H]1OC(=O)[C@H](C)[C@@H](O[C@H]2C[C@@](C)(OC)[C@@H](O)[C@H](C)O2)[C@H](C)[C@@H](O[C@@H]2O[C@H](C)C[C@H](N(C)C)[C@H]2O)[C@](C)(O)C[C@@H](C)CN(C)[C@H](C)[C@@H](O)[C@]1(C)O` [Azithromycin], in assay [1] (Well no.=2167), the remaining activity at 1.25 µM is 97.4%. Also, the remaining activity at 3.75 µM in assay [2] (Well no.=2167) worked out at 102%.
